Results as given in patent US20210206763A1, “Anti-Proliferative Agents” (FEMTOGENIX LIMITED, priority 2015, published 2021).

What was measured:
SK-BR-3 (HER2+++) = assay: In vitro cytotoxicity of ADCs; assay type: cell-based; conditions: Homo sapiens, 72 hour incubation
Protocol: (§1) The resulting ADCs were evaluated in vitro against relevant antigen positive cell-lines.

MCF-7 (HER2−) = assay: In vitro cytotoxicity of ADCs; assay type: cell-based; conditions: Homo sapiens, MCF7; 72 hour incubation
Protocol: as §1

[1] = test system: ZR75-1 (HER2++) (Trastuzumab resistant); assay: In vitro cytotoxicity of ADCs; assay type: cell-based; conditions: Homo sapiens, ZR-75-1; 72 hour incubation
Protocol: as §1

PC3 (Prostate) = assay: In vitro cytotoxicity of 41, cancer cell-line panel; assay type: cell-based; conditions: 72 hour incubation
Protocol: (§2) Tumor cell lines were maintained in RPMI1640 medium supplemented with 10% heat-inactivated fetal bovine serum, 2 mM L-glutamine and 1 mM sodium pyruvate. 1800 cells per well were seeded in a volume of 180 μl in a 96-well flat bottom polystyrene plate. The cells were allowed to adhere overnight at 37° C. in a CO2 incubator. Ligands were initially formulated in DMSO, and stocks stored at −80° C. They were then further formulated at lox concentration in RPMI1640 medium. 20 ul of diluted samples were added into each treatment well. On each plate, blank wells with no cells, and untreated wells containing cells, were included. Plates were then cultured at 37° C. in a CO2 incubator for 72 hrs. Cytotoxicity was evaluated using a tetrazolium salt-based assay, the MIT assay. After 72 hours, the supernatant was removed from each well and 200 μl of a sterile filtered 500 μg/ml MTT solution in water added to each well. The plates were then incubated at 37° C. in a CO2 incubator for 4 hrs. The supernatant was then removed and the formazan crystals formed solubilized by adding 15(411 of DMSO to each well. The plate was then read on a plate reader at 540 nm, and percentage cell survival calculated as follows: ((mean absorbance treated wells at concentration x−mean absorbance blank wells)÷(mean absorbance untreated wells at concentration x−mean absorbance blank wells))×100. Data were plotted as concentration in nM vs. % cell survival in Microsoft Excel, and IC50 values (concentration where cell survival is reduced by a half) were determined from the graph.

A549 (Lung) = assay: as above; assay type: cell-based; conditions: Homo sapiens, 72 hour incubation
Protocol: as §2

SK-HEP-1 (Liver) = assay: as above; assay type: cell-based; conditions: Homo sapiens, SK-HEP1; 72 hour incubation
Protocol: as §2

SW480 (Colorectal) = assay: as above; assay type: cell-based; conditions: Homo sapiens, 72 hour incubation
Protocol: as §2

A375 (Skin) = assay: as above; assay type: cell-based; conditions: Homo sapiens, A-375; 72 hour incubation
Protocol: as §2

BxPC3 (Pancreas) = assay: as above; assay type: cell-based; conditions: Homo sapiens, BXPC-3; 72 hour incubation
Protocol: as §2

SK-MEL-5 (Melanoma) = assay: as above; assay type: cell-based; conditions: Homo sapiens, 72 hour incubation
Protocol: as §2

[2] = test system: EC Cancer Stem Cell (Cancer stem cells); assay: as above; assay type: cell-based; conditions: 72 hour incubation
Protocol: as §2

LnCap (Prostate) = assay: as above; assay type: cell-based; conditions: Homo sapiens, 72 hour incubation
Protocol: as §2

786-O (Renal Cell, CD70) = assay: as above; assay type: cell-based; conditions: Homo sapiens, 786-0; 72 hour incubation
Protocol: as §2

AML2 (AML) = assay: as above; assay type: cell-based; conditions: 72 hour incubation
Protocol: as §2

HL60 (APML) = assay: as above; assay type: cell-based; conditions: Homo sapiens, HL-60; 72 hour incubation
Protocol: as §2

Calu-3 (Lung) = assay: as above; assay type: cell-based; conditions: Homo sapiens, 72 hour incubation
Protocol: as §2

AGS (Gastric) = assay: as above; assay type: cell-based; conditions: 72 hour incubation
Protocol: as §2

[3] = test system: fluorescently labelled DNA duplex 5′-AAAAAAAGAAATTTAAA-3′; assay: FRET DNA melting of fluorescently labelled duplex; assay type: binding; conditions: fragments of 41, FIG. 12B
Text: FRET DNA melting studies were undertaken on a fluorescently labelled duplex DNA sequence reacted with 41 and fragmented forms of the molecule (i.e, using intermediates 106, […] and 148). The sequence (FIG. 10) was designed to provide additional evidence that 41 can effectively stabilise a particular DNA sequence derived through the Footprinting studies (i.e., XGXWWWW where X represents any base, G represents guanine and W indicates adenine or thymine). […] The labels were fluorescein (F) and dabcyl (Q).
Oligonucleotides were obtained from ATDbio (Southampton, UK) in lyophilised form. They were labelled with a fluorophore molecule (F=fluorescein) at the 5′-end and a quencher molecule (Q=dabcyl) at the 3′-end of the complementary strand. Each oligonucleotide was dissolved in distilled H2O to form stock solutions of 100 μM. Working solutions of 5 μM were prepared by diluting the stock solution with distilled H2O.
The following buffers were used: 250 mM phosphate buffer pH 7.4 (consisting of sodium dihydrogen phosphate and sodium phosphate diluted in distilled H2O) and 5 M sodium chloride buffer. All buffers and distilled H2O were filtered through a 0.2 VIM filter prior to use.
For the FRET experiments stock solutions of 41, 106, 107 and 148 were prepared by dissolving the compounds in DMSO to give a concentration of 10 mM. From this stock solution, working solutions of the desired concentration were prepared by diluting the stock solution with distilled H2O.
The reaction mixture was comprised of 4 μL of 250 mM phosphate buffer (final concentration of 50 mM), 4 μL flourophor and 4 μL quencher molecule of the appropriate oligonucleotide for a final concentration of 0.2 μM, 4 μL 5 M sodium chloride (final concentration of 1 M NaCl), and 4 μL of distilled H2O. […] This mixture was analysed without prior annealing.
Fluorescence melting profiles were measured using a Roche LightCycler using a total reaction volume of 20 μL. […] Annealing steps and melting steps were all recorded and changes in fluorescence were measured at 520 nm. […]

[4] = in vivo; cited from earlier work

Compound: COc1cc2c(cc1OCCCC(=O)Nc1cc(C(=O)Nc3ccc(-c4cc(C(=O)Nc5ccc(N)cc5)n(C)c4)cc3)n(C)c1)N=C[C@@H]1CCCCN1C2=O [Compound 41, (S)—N-(4-aminophenyl)-4-(4-(4-(4-((2-methoxy-12-oxo-6a,7,8,9,10,12-hexahydrobenzo[e]pyrido[1,2-a][1,4]diazepin-3-yl)oxy)butanamido)-1-methyl-1H-pyrrole-2-carboxamido)phenyl)-1-methyl-1H-pyrrole-2-carboxamide]
- IC50 (SK-BR-3 (HER2+++)): 0.086 nM
- IC50 (MCF-7 (HER2−)): 0.289 nM
- IC50 [1]: 0.63 nM

Compound: COc1cc2c(cc1OCCCC(=O)Nc1cc(C(=O)Nc3ccc(-c4cc(C(=O)Nc5ccc(N)cc5)n(C)c4)cc3)n(C)c1)N=C[C@@H]1CCCCN1C2=O [Compound 41]
- IC50 (PC3 (Prostate)): 0.36 nM
- IC50 (A549 (Lung)): 0.18 nM
- IC50 (SK-HEP-1 (Liver)): 0.32 nM
- IC50 (SW480 (Colorectal)): 0.29 nM
- IC50 (A375 (Skin)): 0.28 nM
- IC50 (BxPC3 (Pancreas)): 0.43 nM
- IC50 (SK-MEL-5 (Melanoma)): 0.39 nM
- IC50 [2]: 2.64 nM
- IC50 (LnCap (Prostate)): 0.47 nM
- IC50 (786-O (Renal Cell, CD70)): 0.53 nM
- IC50 (AML2 (AML)): 0.016 nM
- IC50 (HL60 (APML)): 0.009 nM
- IC50 (Calu-3 (Lung)): 0.65 nM
- IC50 (AGS (Gastric)): 0.07 nM

Compound: COc1cc2c(cc1O)N=C[C@@H]1CCCCN1C2=O [Compound 106, (S)-3-Hydroxy-2-methoxy-7,8,9,10-tetrahydrobenzo[e]pyrido[1,2-a][1,4]diazepin-12(6aH)-one]
- DNA stabilisation (FRET melting) [3]: little DNA stabilisation

Compound: COc1cc2c(cc1OCCCC(=O)O)N=C[C@@H]1CCCCN1C2=O [Compound 107, (S)-4-((2-Methoxy-12-oxo-6a,7,8,9,10,12-hexahydrobenzo[e]pyrido[1,2-a][1,4]diazepin-3-yl)oxy)butanoic acid]
- DNA stabilisation (FRET melting) [3]: little DNA stabilisation

Compound: Cn1cc(N)cc1C(=O)Nc1ccc(-c2cc(C(=O)Nc3ccc(N)cc3)n(C)c2)cc1 [Compound 148, 4-Amino-N-(4-(5-((4-aminophenyl)carbamoyl)-1-methyl-1H-pyrrol-3-yl)phenyl)-1-methyl-1H-pyrrole-2-carboxamide]
- DNA stabilisation (FRET melting) [3]: little DNA stabilisation

Compound: C=C1C[C@H]2C=Nc3cc(OCCCOc4cc5c(cc4OC)C(=O)N4CC(=C)C[C@H]4C=N5)c(OC)cc3C(=O)N2C1 [SJG-136]
- adverse effects in Phase I clinical evaluation [4]: lower-limb edema and fatigue
